For experiment [1], the target named is T1, Mushroom tyrosinase (Agaricus bisporus, UniProt C7FF04). Put plainly: Tyrosinase assay (spectrophotometry, L-tyrosine substrate). It counts as biochemical. The protocol: Tyrosinase activity was determined by spectrophotometry, with minor modifications. First, 80 μL of 0.1 M potassium phosphate buffer (pH 6.6), 20 μL of sample dissolved in dimethyl sulfoxide at the concentrations needed (final concentrations 100–500 μg/mL), and 50 μL of L-tyrosine buffer (1.5 mM) solutions were mixed. Then, 50 μL of mushroom tyrosinase solution (200 unit/mL in phosphate buffer) was added to each mixture, which was then incubated at 25 °C for 15 min.
The results were expressed as mean ± standard deviation (SD), and were repeated three to five times. The inhibitory concentration (IC50) was calculated by log-Probit analysis.

Another experiment concerns cyclooxygenase-1 (COX-1). On the set-up: method as in PMID 14646327. To be noted: in vitro; cited from earlier work.
Experiment [2] deals with T1, Mushroom tyrosinase. Briefly: Tyrosinase assay (spectrophotometry, L-tyrosine substrate). It counts as biochemical. This is another data set of the same source.

Molecules are shown by their SMILES. Read-outs that look alike come from different tables or passages of the source. Bounds are passed on as bounds.

T1 sequence (C7FF04 2-392): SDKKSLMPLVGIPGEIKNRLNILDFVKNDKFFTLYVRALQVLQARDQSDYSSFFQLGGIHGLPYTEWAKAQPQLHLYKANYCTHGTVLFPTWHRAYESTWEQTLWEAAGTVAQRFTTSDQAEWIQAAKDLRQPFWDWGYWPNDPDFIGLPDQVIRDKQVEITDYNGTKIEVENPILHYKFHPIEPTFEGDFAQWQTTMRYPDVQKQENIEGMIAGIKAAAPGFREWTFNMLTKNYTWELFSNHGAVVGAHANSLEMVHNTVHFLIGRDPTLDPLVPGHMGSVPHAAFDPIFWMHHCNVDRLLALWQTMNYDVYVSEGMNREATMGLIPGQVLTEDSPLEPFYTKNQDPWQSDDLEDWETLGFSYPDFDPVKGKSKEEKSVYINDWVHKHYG
T1 sequence (G1K3P4 1-150 partner): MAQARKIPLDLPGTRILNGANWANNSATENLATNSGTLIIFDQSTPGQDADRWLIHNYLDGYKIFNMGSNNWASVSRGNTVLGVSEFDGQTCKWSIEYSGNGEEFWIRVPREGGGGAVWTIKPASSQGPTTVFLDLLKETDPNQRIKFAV

Take `O=c1c(O)c(-c2ccc(O)cc2)oc2cc(O)cc(O)c12` [Kaempferol (8), kaempferol]: the inhibition at 100 µg/mL against Mushroom tyrosinase [1] amounted to 30 ± 1.97%.
In the case of `COc1cc(C(=O)O)ccc1O` [Vanilic acid (4), vanillic acid], the inhibition at 100 µg/mL against Mushroom tyrosinase [1] is under 1%.
In the case of `O=C(O)c1ccc(O)cc1` [p-Hydroxybenzoic acid (2), p-hydroxybenzoic acid], at Mushroom tyrosinase [1], the inhibition at 100 µg/mL amounted to 8.3 ± 4.03%.
On to `O=C(O)[C@H]1O[C@@H](Oc2c(-c3ccc(O)cc3)oc3cc(O)cc(O)c3c2=O)[C@H](O)[C@@H](O)[C@@H]1O` [Kaempferol 3-O-glucuronide (6), kaempferol 3-O-glucuronide], for which, on Mushroom tyrosinase [1], the inhibition at 100 µg/mL is under 1%.
Turning to `O=C(O)c1ccc(O)c(O)c1` [Protocatechuic acid (1), protocatechuic acid], the inhibition at 100 µg/mL against Mushroom tyrosinase [1] is under 1%.
`O=C(/C=C/c1ccc(O)c(O)c1)O[C@@H]1C[C@](O)(C(=O)O)C[C@@H](O)[C@H]1O` [Chlorogenic acid (3), chlorogenic acid] returned an inhibition at 100 µg/mL on Mushroom tyrosinase [1] of under 1%.
As to `O=C(O)/C=C/c1ccc(O)c(O)c1` [Caffeic acid (5), caffeic acid], the inhibition at 100 µg/mL at Mushroom tyrosinase [1] (100 μg/mL, Table 4, read-out: Inhibition (%)) was under 1%.
Turning to `O=c1c(O)c(-c2ccc(O)c(O)c2)oc2cc(O)cc(O)c12` [Quercetin (7), quercetin], the “Inhibition (%)” value at Mushroom tyrosinase [1] (100 μg/mL, Table 4) was 99.7 ± 0.28%; on Mushroom tyrosinase [1] (100 μg/mL, Table 4, listed as quercetin), “over 95%”. The “inhibition of cyclooxygenase-1 (COX-1)” value in the experiment on cyclooxygenase-1 (COX-1) was 52% ± 2.
Turning to `OC[C@H]1O[C@@H](Oc2ccc(O)cc2)[C@H](O)[C@@H](O)[C@@H]1O` [Arbutin, arbutin, reference compound], on Mushroom tyrosinase [1], the inhibition at 100 µg/mL came to 86 ± 1.6% and the inhibition at 500 µg/mL was found to be 98.2 ± 0.9%. In addition, the inhibition at 500 µg/mL on Mushroom tyrosinase [1] (read-out: Inhibition % (500 μg/mL)) turned out to be 92.3 ± 2.2%. In addition, at Mushroom tyrosinase [2], the inhibition at 10 µg/mL came out at 13.7 ± 1.8% and the inhibition at 50 µg/mL was determined as 63.8 ± 0.1%.

Values taken from publication PMC6155296, “Screening of Peruvian Medicinal Plants for Tyrosinase Inhibitory Properties: Identification of Tyrosinase Inhibitors in Hypericum laricifolium Juss” (Molecules : A Journal of Synthetic Chemistry and Natural …, 2017).
